From US20260265265A1, “NOVEL BENZIMIDAZOLONE DERIVATIVE COMPOUND AS AUTOTAXIN INHIBITOR” (LG CHEM, LTD., priority 2023, published 2026)

What follows are molecules tested against T1, Recombinant Human ENPP-2/Autotaxin (Homo sapiens, UniProt Q13822) (assay: LysoPLD activity measurement (autotaxin enzyme inhibition, choline release, TOOS reagent)). Details: LysoPLD inhibitory activity; substrate 14:0 LysoPC; absorbance at 555 nm.
T1 construct: purchased R&D systems 5255-EN
Type: biochemical
Procedure, shortened: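 Enzyme and compound were preincubated for 30 min before adding 14:0 LysoPC substrate, diluted to 300 μM, for 90 minutes at 37° C. The choline product was quantified colorimetrically with TOOS reagent. Wells without compound held 1% DMSO.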

SMILES	IC50 [nM]
O=C(O)c1cccc(C2(n3c(=O)n(-c4ccc(CC(=O)N5CCCCC5)cc4)c4cc(Cl)ccc43)CC2)c1 [Example 171, 3-(1-(5-chloro-2-oxo-3-(4-(2-oxo-2-(piperidin-1-yl)ethyl)phenyl)-2,3-dihydro-1H-benzo[d]imidazol-1-yl)cyclopropyl)benzoic acid]	< 10
O=C(O)c1cccc(C2(n3c(=O)n(-c4ccc(CC(=O)N5CCOCC5)cc4)c4cc(Cl)ccc43)CC2)c1 [Example 172, 3-(1-(5-chloro-3-(4-(2-morpholino-2-oxoethyl)phenyl)-2-oxo-2,3-dihydro-1H-benzo[d]imidazol-1-yl)cyclopropyl)benzoic acid]	10 to 100
O=C(O)c1cccc(C2(n3c(=O)n(-c4ccc(CC(=O)N5CCC(F)(F)CC5)cc4)c4cc(Cl)ccc43)CC2)c1 [Example 173, 3-(1-(5-chloro-3-(4-(2-(4,4-difluoropiperidin-1-yl)-2-oxoethyl)phenyl)-2-oxo-2,3-dihydro-1H-benzo[d]imidazol-1-yl)cyclopropyl)benzoic acid]	10 to 100
O=C(O)c1cccc(C2(n3c(=O)n(-c4ccc(CC(=O)N5CC(O)C5)cc4)c4cc(Cl)ccc43)CC2)c1 [Example 174, 3-(1-(5-chloro-3-(4-(2-(3-hydroxyazetidin-1-yl)-2-oxoethyl)phenyl)-2-oxo-2,3-dihydro-1H-benzo[d]imidazol-1-yl)cyclopropyl)benzoic acid]	< 10
C[C@@H]1CN(C(=O)Cc2ccc(-n3c(=O)n(C4(c5cccc(C(=O)O)c5)CC4)c4ccc(Cl)cc43)cc2)CCO1 [Example 175, (R)-3-(1-(5-chloro-3-(4-(2-(2-methylmorpholino)-2-oxoethyl)phenyl)-2-oxo-2,3-dihydro-1H-benzo[d]imidazol-1-yl)cyclopropyl)benzoic acid]	< 10
C[C@H]1CN(C(=O)Cc2ccc(-n3c(=O)n(C4(c5cccc(C(=O)O)c5)CC4)c4ccc(Cl)cc43)cc2)CCO1 [Example 176, (S)-3-(1-(5-chloro-3-(4-(2-(2-methylmorpholino)-2-oxoethyl)phenyl)-2-oxo-2,3-dihydro-1H-benzo[d]imidazol-1-yl)cyclopropyl)benzoic acid]	10 to 100
C[C@H]1COCCN1C(=O)Cc1ccc(-n2c(=O)n(C3(c4cccc(C(=O)O)c4)CC3)c3ccc(Cl)cc32)cc1 [Example 177, (S)-3-(1-(5-chloro-3-(4-(2-(3-methylmorpholino)-2-oxoethyl)phenyl)-2-oxo-2,3-dihydro-1H-benzo[d]imidazol-1-yl)cyclopropyl)benzoic acid]	10 to 100
C[C@@H]1COCCN1C(=O)Cc1ccc(-n2c(=O)n(C3(c4cccc(C(=O)O)c4)CC3)c3ccc(Cl)cc32)cc1 [Example 178, (R)-3-(1-(5-chloro-3-(4-(2-(3-methylmorpholino)-2-oxoethyl)phenyl)-2-oxo-2,3-dihydro-1H-benzo[d]imidazol-1-yl)cyclopropyl)benzoic acid]	< 10
O=C(O)c1cccc(C2(n3c(=O)n(-c4ccc(C56CC7CC(CC(C7)C5)C6)cc4)c4cc(Cl)ccc43)CC2)c1 [Example 179, 3-(1-(3-(4-((3r,5r,7r)-adamantan-1-yl)phenyl)-5-chloro-2-oxo-2,3-dihydro-1H-benzo[d]imidazol-1-yl)cyclopropyl)benzoic acid]	100 to 1000
CS(=O)(=O)c1ccc(-n2c(=O)n(C3(c4cccc(C(=O)O)c4)CC3)c3ccc(Cl)cc32)cc1 [Example 180, 3-(1-(5-chloro-3-(4-(methylsulfonyl)phenyl)-2-oxo-2,3-dihydro-1H-benzo[d]imidazol-1-yl)cyclopropyl)benzoic acid]	< 10
O=C(O)c1cccc(C2(n3c(=O)n(-c4ccc(N5CC6CC5CO6)cc4)c4cc(Cl)ccc43)CC2)c1 (stereo not shown) [Example 181, 3-(1-(3-(4-(2-oxa-5-azabicyclo[2.2.1]heptan-5-yl)phenyl)-5-chloro-2-oxo-2,3-dihydro-1H-benzo[d]imidazol-1-yl)cyclopropyl)benzoic acid]	< 10
O=C(O)c1cccc(C2(n3c(=O)n(-c4ccc(N5CC6CCC(C5)O6)cc4)c4cc(Cl)ccc43)CC2)c1 [Example 182, 3-(1-(3-(4-(8-oxa-3-azabicyclo[3.2.1]octan-3-yl)phenyl)-5-chloro-2-oxo-2,3-dihydro-1H-benzo[d]imidazol-1-yl)cyclopropyl)benzoic acid]	< 10
O=C(O)c1cccc(C2(n3c(=O)n(-c4ccc(N5CCCOCC5)cc4)c4cc(Cl)ccc43)CC2)c1 [Example 183, 3-(1-(3-(4-(1,4-oxazepan-4-yl)phenyl)-5-chloro-2-oxo-2,3-dihydro-1H-benzo[d]imidazol-1-yl)cyclopropyl)benzoic acid]	< 10
O=C(O)c1cccc(C2(n3c(=O)n(-c4ccc(N5CC6(CCC6)C5)cc4)c4cc(Cl)ccc43)CC2)c1 [Example 184, 3-(1-(3-(4-(2-azaspiro[3.3]heptan-2-yl)phenyl)-5-chloro-2-oxo-2,3-dihydro-1H-benzo[d]imidazol-1-yl)cyclopropyl)benzoic acid]	10 to 100
O=C(O)c1cccc(C2(n3c(=O)n(-c4ccc(N5CC(F)(F)C5)cc4)c4cc(Cl)ccc43)CC2)c1 [Example 185, 3-(1-(5-chloro-3-(4-(3,3-difluoroazetidin-1-yl)phenyl)-2-oxo-2,3-dihydro-1H-benzo[d]imidazol-1-yl)cyclopropyl)benzoic acid]	< 10
CC(=O)N1CCC2(CC1)CN(c1ccc(-n3c(=O)n(C4(c5cccc(C(=O)O)c5)CC4)c4ccc(Cl)cc43)cc1)C2 [Example 186, 3-(1-(3-(4-(7-acetyl-2,7-diazaspiro[3.5]nonan-2-yl)phenyl)-5-chloro-2-oxo-2,3-dihydro-1H-benzo[d]imidazol-1-yl)cyclopropyl)benzoic acid]	< 10
O=C(O)c1cc(F)cc(C2(n3c(=O)n(-c4ccc(N5CCOCC5)cc4)c4cc(Cl)ccc43)CC2)c1 [Example 187, 3-(1-(5-chloro-3-(4-morpholinophenyl)-2-oxo-2,3-dihydro-1H-benzo[d]imidazol-1-yl)cyclopropyl)-5-fluorobenzoic acid]	< 10
CN(C)c1ccc(-n2c(=O)n(C3(c4cc(F)cc(C(=O)O)c4)CC3)c3ccc(Cl)cc32)cc1 [Example 188, 3-(1-(5-chloro-3-(4-(dimethylamino)phenyl)-2-oxo-2,3-dihydro-1H-benzo[d]imidazol-1-yl)cyclopropyl)-5-fluorobenzoic acid]	< 10
CN(C)C(=O)Cc1ccc(-n2c(=O)n(C3(c4cc(F)cc(C(=O)O)c4)CC3)c3ccc(Cl)cc32)cc1 [Example 189, 3-(1-(5-chloro-3-(4-(2-(dimethylamino)-2-oxoethyl)phenyl)-2-oxo-2,3-dihydro-1H-benzo[d]imidazol-1-yl)cyclopropyl)-5-fluorobenzoic acid]	< 10
O=C(O)c1cc(F)cc(C2(n3c(=O)n(-c4ccc(C5CCOCC5)cc4)c4cc(Cl)ccc43)CC2)c1 [Example 190, 3-(1-(5-chloro-2-oxo-3-(4-(tetrahydro-2H-pyran-4-yl)phenyl)-2,3-dihydro-1H-benzo[d]imidazol-1-yl)cyclopropyl)-5-fluorobenzoic]	10 to 100
O=C(O)c1cc(F)cc(C2(n3c(=O)n(-c4ccc(N5CC6(COC6)C5)cc4)c4cc(Cl)ccc43)CC2)c1 [Example 191, 3-(1-(3-(4-(2-oxa-6-azaspiro[3.3]heptan-6-yl)phenyl)-5-chloro-2-oxo-2,3-dihydro-1H-benzo[d]imidazol-1-yl)cyclopropyl)-5-fluorobenzoic acid]	< 10
O=C(O)c1cc(F)cc(C2(n3c(=O)n(-c4ccc(N5CC6CCC(C5)O6)cc4)c4cc(Cl)ccc43)CC2)c1 [Example 192, 3-(1-(3-(4-(8-oxa-3-azabicyclo[3.2.1]octan-3-yl)phenyl)-5-chloro-2-oxo-2,3-dihydro-1H-benzo[d]imidazol-1-yl)cyclopropyl)-5-fluorobenzoic acid]	< 10
O=C(O)c1cc(F)cc(C2(n3c(=O)n(-c4ccc(N5CC6(CCOCC6)C5)cc4)c4cc(Cl)ccc43)CC2)c1 [Example 193, 3-(1-(3-(4-(7-oxa-2-azaspiro[3.5]nonan-2-yl)phenyl)-5-chloro-2-oxo-2,3-dihydro-1H-benzo[d]imidazol-1-yl)cyclopropyl)-5-fluorobenzoic acid]	< 10
O=C(O)c1cc(F)cc(C2(n3c(=O)n(-c4ccc(N5CC(F)(F)C5)cc4)c4cc(Cl)ccc43)CC2)c1 [Example 194, 3-(1-(5-chloro-3-(4-(3,3-difluoroazetidin-1-yl)phenyl)-2-oxo-2,3-dihydro-1H-benzo[d]imidazol-1-yl)cyclopropyl)-5-fluorobenzoic acid]	< 10
CC(C)(C)OC(=O)N1CCC2(CC1)CN(c1ccc(-n3c(=O)n(C4(c5cc(F)cc(C(=O)O)c5)CC4)c4ccc(Cl)cc43)cc1)C2 [Example 195, 3-(1-(3-(4-(7-(tert-butoxycarbonyl)-2,7-diazaspiro[3.5]nonan-2-yl)phenyl)-5-chloro-2-oxo-2,3-dihydro-1H-benzo[d]imidazol-1-yl)cyclopropyl)-5-fluorobenzoic acid]	10 to 100
O=C(O)c1cc(F)cc(C2(n3c(=O)n(-c4ccc(N5CC6(CCC6)C5)cc4)c4cc(Cl)ccc43)CC2)c1 [Example 196, 3-(1-(3-(4-(2-azaspiro[3.3]heptan-2-yl)phenyl)-5-chloro-2-oxo-2,3-dihydro-1H-benzo[d]imidazol-1-yl)cyclopropyl)-5-fluorobenzoic acid]	10 to 100
O=C(O)c1cc(F)cc(C2(n3c(=O)n(-c4ccc(N5CCC(F)(F)CC5)cc4)c4cc(Cl)ccc43)CC2)c1 [Example 197, 3-(1-(5-chloro-3-(4-(4,4-difluoropiperidin-1-yl)phenyl)-2-oxo-2,3-dihydro-1H-benzo[d]imidazol-1-yl)cyclopropyl)-5-fluorobenzoic acid]	< 10
O=C(O)c1cc(Cn2c(=O)n(-c3ccc(N4CCOCC4)cc3)c3c(F)c(Cl)ccc32)on1 [Example 198, 5-((5-chloro-4-fluoro-3-(4-morpholinophenyl)-2-oxo-2,3-dihydro-1H-benzo[d]imidazol-1-yl)methyl)isoxazole-3-carboxylic acid]	100 to 1000
